# Target: T1, GlyT1 (Homo sapiens, UniProt P48067)
# T1 construct: expressed in transfected cells
# T1 sequence (P48067 1-706): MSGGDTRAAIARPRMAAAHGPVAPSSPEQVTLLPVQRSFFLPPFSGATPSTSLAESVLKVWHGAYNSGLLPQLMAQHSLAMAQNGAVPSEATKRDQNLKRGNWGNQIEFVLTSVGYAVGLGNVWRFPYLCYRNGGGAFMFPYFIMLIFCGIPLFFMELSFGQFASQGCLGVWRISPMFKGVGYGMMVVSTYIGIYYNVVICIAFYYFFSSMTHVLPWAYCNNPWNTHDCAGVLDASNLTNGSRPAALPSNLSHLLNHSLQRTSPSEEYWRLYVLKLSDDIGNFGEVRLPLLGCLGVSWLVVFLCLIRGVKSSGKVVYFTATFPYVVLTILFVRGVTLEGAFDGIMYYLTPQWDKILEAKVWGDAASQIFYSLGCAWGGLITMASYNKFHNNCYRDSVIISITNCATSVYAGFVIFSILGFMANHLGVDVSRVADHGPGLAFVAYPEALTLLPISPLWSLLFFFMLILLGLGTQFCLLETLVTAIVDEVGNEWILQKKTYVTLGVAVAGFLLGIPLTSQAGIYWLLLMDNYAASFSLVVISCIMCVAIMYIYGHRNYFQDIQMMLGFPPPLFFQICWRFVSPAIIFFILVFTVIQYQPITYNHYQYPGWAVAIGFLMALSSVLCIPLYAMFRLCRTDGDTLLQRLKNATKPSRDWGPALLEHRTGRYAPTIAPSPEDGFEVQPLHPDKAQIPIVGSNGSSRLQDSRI
# Experiment: Glycine Transporter 1 (GlyT1) uptake assay, scintillation proximity assay of [14C]-glycine uptake
# Format: cell-based
# Settings: [14C]-glycine uptake; read-out: GlyT1 (pIC50) (converted)
# Method in brief: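 IC50 values were derived by four-parameter logistic fitting of counts. The 2× compound solutions were made by 1:100 dilution into HBSS of DMSO serial dilutions.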
row,Compound,IC50
1,"C[C@H](Oc1ccc(C#N)c(Cl)c1C(=O)N1CC(c2ccc(C(F)(F)F)cc2)C1)C(F)(F)F [Example 107, 2-Chloro-3-({3-[4-(trifluoromethyl)phenyl]azetidin-1-yl}carbonyl)-4-{[(2S)-1,1,1-trifluoropropan-2-yl]oxy}benzonitrile]",< 0.1 µM
2,"COc1c(S(C)(=O)=O)ccc(OC(C)C(F)(F)F)c1C(=O)N1CC(Oc2ccc(F)c(F)c2)C1 (stereo not shown) [Example 180, 3-(3,4-Difluorophenoxy)-1-({3-methanesulfonyl-2-methoxy-6-[(1,1,1-trifluoropropan-2-yl)oxy]phenyl}carbonyl)azetidine]",< 0.1 µM
3,"COc1c(S(C)(=O)=O)ccc(O[C@@H](C)C(F)(F)F)c1C(=O)N1CC(Oc2cccc(F)c2)C1 [Example 207, 3-(3-Fluorophenoxy)-1-(3-methanesulfonyl-2-methoxy-6-{[(2S)-1,1,1-trifluoropropan-2-yl]oxy}benzoyl)azetidine]",< 0.1 µM
4,"COc1c(S(C)(=O)=O)ccc(O[C@@H](C)C(F)(F)F)c1C(=O)N1CC(c2ccc(C(F)F)cc2F)C1 [Example 143, 3-[4-(Difluoromethyl)-2-fluorophenyl]-1-(3-methanesulfonyl-2-methoxy-6-{[(2S)-1,1,1-trifluoropropan-2-yl]oxy}benzoyl)azetidine]",0.1 to 1 µM
5,"COc1c(C#N)ccc(O[C@@H](C)C(F)(F)F)c1C(=O)N1CC(F)(c2ccc(C(F)(F)F)cc2)C1 [Example 69, 3-({3-Fluoro-3-[4-(trifluoromethyl)phenyl]azetidin-1-yl}carbonyl)-2-methoxy-4-{[(2S)-1,1,1-trifluoropropan-2-yl]oxy}benzonitrile]",0.1 to 1 µM
6,"COc1c(S(C)(=O)=O)ccc(OCC(F)(F)F)c1C(=O)N1CC(Oc2c(F)cc(F)cc2F)C1 [Example 225, 1-[3-Methanesulfonyl-2-methoxy-6-(2,2,2-trifluoroethoxy)benzoyl]-3-(2,4,6-trifluorophenoxy)azetidine]",0.1 to 1 µM

# The remaining lines, values ahead:
row,IC50,Compound
1,0.1 to 1 µM,"COc1c(C#N)ccc(C2CCCC2)c1C(=O)N1CC(Oc2c(F)cc(F)cc2F)C1 [Example 212, 4-Cyclopentyl-2-methoxy-3-[3-(2,4,6-trifluorophenoxy)azetidine-1-carbonyl]benzonitrile]"
2,< 0.1 µM,"COc1c(C#N)ccc(OC(C)C(F)(F)F)c1C(=O)N1CC(c2ccc(F)cc2)C1 (stereo not shown) [Example 91, 3-{[3-(4-Fluorophenyl)azetidin-1-yl]carbonyl}-2-methoxy-4-[(1,1,1-trifluoropropan-2-yl)oxy]benzonitrile]"
3,0.1 to 1 µM,"COc1c(C#N)ccc(O[C@H](C)C(F)(F)F)c1C(=O)N1CC(c2ccc(C(F)(F)F)cn2)C1 [Example 135, 2-Methoxy-3-{3-[5-(trifluoromethyl)pyridin-2-yl]azetidine-1-carbonyl}-4-{[(2R)-1,1,1-trifluoropropan-2-yl]oxy}benzonitrile]"
4,1 to 10 µM,"COc1c(C#N)ccc(O[C@@H](C)C(F)(F)F)c1C(=O)N1CC(c2ccc(F)c(F)c2)C1 [Example 51, 3-[3-(3,4-Difluorophenyl)azetidine-1-carbonyl]-2-methoxy-4-{[(2S)-1,1,1-trifluoropropan-2-yl]oxy}benzonitrile]"
5,< 0.1 µM,"COc1c(C#N)ccc(O[C@@H](C)C(F)(F)F)c1C(=O)N1CC(c2ncc(F)cc2F)C1 [Example 121, 3-{[3-(3,5-Difluoropyridin-2-yl)azetidin-1-yl]carbonyl}-2-methoxy-4-{[(2S)-1,1,1-trifluoropropan-2-yl]oxy}benzonitrile]"
6,< 0.1 µM,"COc1c(C#N)ccc(OCC2CC2)c1C(=O)N1CC(c2ccc(C#N)cc2)C1 [Example 173, 3-{[3-(4-Cyanophenyl)azetidin-1-yl]carbonyl}-4-(cyclopropylmethoxy)-2-methoxybenzonitrile]"
7,< 0.1 µM,"COc1c(C#N)ccc(C2(F)CCOCC2)c1C(=O)N1CC(c2ccc(C#N)cc2Cl)C1 [Example 132, 3-{[3-(2-Chloro-4-cyanophenyl)azetidin-1-yl]carbonyl}-4-(4-fluorooxan-4-yl)-2-methoxybenzonitrile]"
